Measurements from PMC4490784, “Compensatory induction of MYC expression by sustained CDK9 inhibition via a BRD4-dependent mechanism” (eLife, 2015).

What was measured:
Assay in all cases: KINOMEscan binding assay
CLK2 = target: T1, CLK2 (Homo sapiens, UniProt P49760); conditions: read-out: % Retention on Solid Support
T1 construct: purchased DiscoveRx KINOMEscan
How it was run: (§1)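 Competitive displacement at the ATP site served as the measure. Over 400 kinases were included, each exposed to i-CDK9 at 1 and at 10 µM.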

ASK1 = target: T2, ASK1 (Homo sapiens, UniProt Q99683); conditions: read-out: % Retention on Solid Support
T2 construct: purchased DiscoveRx KINOMEscan
How it was run: as §1

PYK2 = target: T3, PYK2 (Homo sapiens, UniProt Q14289); conditions: read-out: % Retention on Solid Support
T3 construct: purchased DiscoveRx KINOMEscan
T3 sequence (Q14289 whole entry): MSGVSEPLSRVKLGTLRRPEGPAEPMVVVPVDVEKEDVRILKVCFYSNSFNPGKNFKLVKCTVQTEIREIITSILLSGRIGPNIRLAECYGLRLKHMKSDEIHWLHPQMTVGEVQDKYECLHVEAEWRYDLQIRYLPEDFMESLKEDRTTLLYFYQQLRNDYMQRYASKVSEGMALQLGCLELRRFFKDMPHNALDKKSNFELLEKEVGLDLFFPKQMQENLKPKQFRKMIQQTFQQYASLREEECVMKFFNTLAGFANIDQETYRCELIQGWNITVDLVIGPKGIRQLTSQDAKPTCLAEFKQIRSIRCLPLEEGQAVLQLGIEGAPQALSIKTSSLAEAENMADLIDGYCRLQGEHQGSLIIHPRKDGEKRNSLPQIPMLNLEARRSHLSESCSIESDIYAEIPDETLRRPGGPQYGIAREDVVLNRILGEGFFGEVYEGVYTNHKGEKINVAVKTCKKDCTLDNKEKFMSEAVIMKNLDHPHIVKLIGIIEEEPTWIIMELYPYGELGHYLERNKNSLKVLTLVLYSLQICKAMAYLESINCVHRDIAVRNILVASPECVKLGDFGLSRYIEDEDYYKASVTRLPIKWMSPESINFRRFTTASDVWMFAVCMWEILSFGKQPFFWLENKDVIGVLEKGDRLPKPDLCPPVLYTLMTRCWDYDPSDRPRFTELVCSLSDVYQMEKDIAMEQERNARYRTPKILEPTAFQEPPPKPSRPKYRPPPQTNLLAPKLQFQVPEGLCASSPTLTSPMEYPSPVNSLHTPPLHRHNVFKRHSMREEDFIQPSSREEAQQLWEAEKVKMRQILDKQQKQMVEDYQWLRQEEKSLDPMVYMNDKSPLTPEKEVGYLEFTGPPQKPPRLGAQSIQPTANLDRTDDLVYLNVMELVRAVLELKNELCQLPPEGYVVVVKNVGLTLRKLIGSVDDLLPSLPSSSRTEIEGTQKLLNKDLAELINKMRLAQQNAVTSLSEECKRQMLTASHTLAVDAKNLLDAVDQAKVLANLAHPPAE
How it was run: as §1

PLK4 = target: T4, PLK4 (Homo sapiens, UniProt O00444); conditions: read-out: % Retention on Solid Support
T4 construct: purchased DiscoveRx KINOMEscan
How it was run: as §1

PKN2 = target: T5, PKN2 (Homo sapiens, UniProt Q16513); conditions: read-out: % Retention on Solid Support
T5 construct: purchased DiscoveRx KINOMEscan
How it was run: as §1

RET = target: T6, RET (Homo sapiens, UniProt P07949); conditions: read-out: % Retention on Solid Support
T6 construct: purchased DiscoveRx KINOMEscan
How it was run: as §1

CSNK1G2 = target: T7, CSNK1G2 (Homo sapiens, UniProt P78368)
T7 construct: purchased DiscoveRx KINOMEscan
How it was run: as §1

EPHA5 = target: T8, EPHA5 (Homo sapiens, UniProt P54756)
T8 construct: purchased DiscoveRx KINOMEscan
T8 sequence (P54756 25-1037): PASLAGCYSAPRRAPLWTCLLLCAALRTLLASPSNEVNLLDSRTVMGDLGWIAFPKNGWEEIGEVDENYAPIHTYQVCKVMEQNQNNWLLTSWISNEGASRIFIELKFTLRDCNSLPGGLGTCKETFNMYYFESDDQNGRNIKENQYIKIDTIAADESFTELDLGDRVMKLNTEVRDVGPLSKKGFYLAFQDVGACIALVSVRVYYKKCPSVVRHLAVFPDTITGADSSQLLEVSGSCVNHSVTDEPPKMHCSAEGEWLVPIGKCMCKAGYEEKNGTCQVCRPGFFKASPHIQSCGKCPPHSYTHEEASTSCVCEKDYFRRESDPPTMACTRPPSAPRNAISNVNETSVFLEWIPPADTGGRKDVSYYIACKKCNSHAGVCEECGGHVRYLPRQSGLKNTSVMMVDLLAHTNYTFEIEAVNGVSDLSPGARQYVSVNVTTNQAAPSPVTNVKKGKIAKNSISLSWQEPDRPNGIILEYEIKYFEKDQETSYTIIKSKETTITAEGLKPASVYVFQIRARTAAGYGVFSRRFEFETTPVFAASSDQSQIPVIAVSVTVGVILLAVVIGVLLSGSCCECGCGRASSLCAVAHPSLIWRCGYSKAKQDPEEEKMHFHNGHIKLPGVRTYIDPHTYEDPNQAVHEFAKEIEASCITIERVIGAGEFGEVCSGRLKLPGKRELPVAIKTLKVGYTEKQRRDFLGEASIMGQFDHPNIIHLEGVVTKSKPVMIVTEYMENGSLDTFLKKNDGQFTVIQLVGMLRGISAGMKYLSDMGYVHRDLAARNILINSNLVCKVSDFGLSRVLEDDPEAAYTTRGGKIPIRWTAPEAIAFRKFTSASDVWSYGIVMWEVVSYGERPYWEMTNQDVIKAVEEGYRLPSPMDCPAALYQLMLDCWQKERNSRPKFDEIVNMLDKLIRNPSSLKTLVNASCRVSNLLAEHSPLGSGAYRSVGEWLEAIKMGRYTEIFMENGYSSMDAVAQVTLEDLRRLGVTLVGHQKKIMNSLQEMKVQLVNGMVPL
How it was run: as §1

[1] = target: T9, ABL1(Y253F)-non phosphorylated (Homo sapiens, UniProt P00519, Y253F); conditions: read-out: % Retention on Solid Support
T9 construct: purchased DiscoveRx KINOMEscan
How it was run: as §1

CDC2L2 = target: T10, CDC2L2 (Homo sapiens, UniProt Q9UQ88); conditions: read-out: % Retention on Solid Support
T10 construct: purchased DiscoveRx KINOMEscan
How it was run: as §1

EPHA7 = target: T11, EPHA7 (Homo sapiens, UniProt Q15375); conditions: read-out: % Retention on Solid Support
T11 construct: purchased DiscoveRx KINOMEscan
How it was run: as §1

GSK3A = target: T12, GSK3A (Homo sapiens, UniProt P49840); conditions: read-out: % Retention on Solid Support
T12 construct: purchased DiscoveRx KINOMEscan
How it was run: as §1

FLT1 = target: T13, FLT1 (Homo sapiens, UniProt P17948); conditions: read-out: % Retention on Solid Support
T13 construct: purchased DiscoveRx KINOMEscan
How it was run: as §1

MAPKAPK5 = target: T14, MAPKAPK5 (Homo sapiens, UniProt Q8IW41); conditions: read-out: % Retention on Solid Support
T14 construct: purchased DiscoveRx KINOMEscan
T14 sequence (Q8IW41 1-473): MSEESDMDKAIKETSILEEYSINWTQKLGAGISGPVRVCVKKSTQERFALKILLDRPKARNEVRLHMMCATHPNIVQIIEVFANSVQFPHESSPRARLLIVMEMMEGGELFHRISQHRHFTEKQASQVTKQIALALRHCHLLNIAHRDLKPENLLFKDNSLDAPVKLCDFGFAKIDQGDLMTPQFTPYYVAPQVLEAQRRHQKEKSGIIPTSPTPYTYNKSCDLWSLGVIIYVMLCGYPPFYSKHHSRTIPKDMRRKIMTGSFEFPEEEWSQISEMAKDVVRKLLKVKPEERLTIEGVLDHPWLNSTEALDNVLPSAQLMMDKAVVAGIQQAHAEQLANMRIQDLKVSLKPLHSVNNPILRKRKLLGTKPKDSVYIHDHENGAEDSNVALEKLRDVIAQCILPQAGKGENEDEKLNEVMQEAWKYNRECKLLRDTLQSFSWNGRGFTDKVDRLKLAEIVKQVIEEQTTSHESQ
How it was run: as §1

MEK3 = target: T15, MEK3 (Homo sapiens, UniProt P46734); conditions: read-out: % Retention on Solid Support
T15 construct: purchased DiscoveRx KINOMEscan
T15 sequence (P46734 whole entry): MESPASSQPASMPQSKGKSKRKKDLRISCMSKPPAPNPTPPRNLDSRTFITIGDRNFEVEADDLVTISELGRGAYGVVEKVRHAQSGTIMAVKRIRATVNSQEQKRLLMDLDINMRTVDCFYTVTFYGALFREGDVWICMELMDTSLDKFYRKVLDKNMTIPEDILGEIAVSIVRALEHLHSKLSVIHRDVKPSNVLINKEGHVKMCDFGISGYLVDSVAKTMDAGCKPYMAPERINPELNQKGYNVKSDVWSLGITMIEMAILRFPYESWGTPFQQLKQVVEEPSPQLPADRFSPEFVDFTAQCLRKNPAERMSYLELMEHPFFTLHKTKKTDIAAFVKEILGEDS
How it was run: as §1

PRKCD = target: T16, PRKCD (Homo sapiens, UniProt Q05655); conditions: read-out: % Retention on Solid Support
T16 construct: purchased DiscoveRx KINOMEscan
How it was run: as §1

BLK = target: T17, BLK (Homo sapiens, UniProt P51451); conditions: read-out: % Retention on Solid Support
T17 construct: purchased DiscoveRx KINOMEscan
T17 sequence (P51451 whole entry): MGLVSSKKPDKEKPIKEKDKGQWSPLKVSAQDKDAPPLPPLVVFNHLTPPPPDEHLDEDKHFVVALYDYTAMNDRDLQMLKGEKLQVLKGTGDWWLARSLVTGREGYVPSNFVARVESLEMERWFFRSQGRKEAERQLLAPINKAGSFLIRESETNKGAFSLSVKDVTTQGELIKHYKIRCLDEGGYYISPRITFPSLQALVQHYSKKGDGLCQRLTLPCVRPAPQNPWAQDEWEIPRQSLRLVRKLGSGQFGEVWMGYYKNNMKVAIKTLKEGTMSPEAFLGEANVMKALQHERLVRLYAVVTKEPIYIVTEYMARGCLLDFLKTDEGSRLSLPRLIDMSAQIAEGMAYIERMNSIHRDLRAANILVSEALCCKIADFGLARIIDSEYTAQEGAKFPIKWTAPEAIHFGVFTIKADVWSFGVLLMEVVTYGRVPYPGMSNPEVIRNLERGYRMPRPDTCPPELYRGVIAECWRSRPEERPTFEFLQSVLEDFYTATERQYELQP
How it was run: as §1

MARK4 = target: T18, MARK4 (Homo sapiens, UniProt Q96L34)
T18 construct: purchased DiscoveRx KINOMEscan
How it was run: as §1

TSSK1B = target: T19, TSSK1B (Homo sapiens, UniProt Q9BXA7); conditions: read-out: % Retention on Solid Support
T19 construct: purchased DiscoveRx KINOMEscan
T19 sequence (Q9BXA7 whole entry): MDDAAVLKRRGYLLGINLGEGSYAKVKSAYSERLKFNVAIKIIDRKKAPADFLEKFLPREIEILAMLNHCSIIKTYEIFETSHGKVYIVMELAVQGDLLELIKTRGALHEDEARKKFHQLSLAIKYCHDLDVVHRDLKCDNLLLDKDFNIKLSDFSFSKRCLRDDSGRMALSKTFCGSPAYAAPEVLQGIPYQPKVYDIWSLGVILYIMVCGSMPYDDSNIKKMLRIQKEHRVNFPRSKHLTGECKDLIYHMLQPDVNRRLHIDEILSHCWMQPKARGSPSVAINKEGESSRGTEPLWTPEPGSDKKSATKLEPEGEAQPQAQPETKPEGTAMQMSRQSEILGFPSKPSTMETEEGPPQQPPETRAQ
How it was run: as §1

ERK4 = target: T20, ERK4 (Homo sapiens, UniProt P31152); conditions: read-out: % Retention on Solid Support
T20 construct: purchased DiscoveRx KINOMEscan
T20 sequence (P31152 whole entry): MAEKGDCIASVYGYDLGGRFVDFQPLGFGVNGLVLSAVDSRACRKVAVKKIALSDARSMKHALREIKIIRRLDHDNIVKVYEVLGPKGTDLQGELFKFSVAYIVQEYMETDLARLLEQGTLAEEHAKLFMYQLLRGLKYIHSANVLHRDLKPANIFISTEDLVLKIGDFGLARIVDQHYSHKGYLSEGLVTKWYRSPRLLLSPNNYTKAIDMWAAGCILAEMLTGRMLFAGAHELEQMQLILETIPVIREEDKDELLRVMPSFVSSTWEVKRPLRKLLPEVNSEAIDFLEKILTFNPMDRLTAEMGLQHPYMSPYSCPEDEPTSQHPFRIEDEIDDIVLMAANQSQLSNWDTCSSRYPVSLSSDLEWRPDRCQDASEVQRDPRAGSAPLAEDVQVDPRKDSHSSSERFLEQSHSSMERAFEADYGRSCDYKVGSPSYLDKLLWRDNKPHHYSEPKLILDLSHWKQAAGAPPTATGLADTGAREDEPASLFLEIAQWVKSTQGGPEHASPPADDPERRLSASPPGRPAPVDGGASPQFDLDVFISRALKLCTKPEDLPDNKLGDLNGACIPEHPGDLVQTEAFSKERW
How it was run: as §1

PCTK2 = target: T21, PCTK2 (Homo sapiens, UniProt Q00537); conditions: read-out: % Retention on Solid Support
T21 construct: purchased DiscoveRx KINOMEscan
How it was run: as §1

CAMK1 = target: T22, CAMK1 (Homo sapiens, UniProt Q14012); conditions: read-out: % Retention on Solid Support
T22 construct: purchased DiscoveRx KINOMEscan
T22 sequence (Q14012 whole entry): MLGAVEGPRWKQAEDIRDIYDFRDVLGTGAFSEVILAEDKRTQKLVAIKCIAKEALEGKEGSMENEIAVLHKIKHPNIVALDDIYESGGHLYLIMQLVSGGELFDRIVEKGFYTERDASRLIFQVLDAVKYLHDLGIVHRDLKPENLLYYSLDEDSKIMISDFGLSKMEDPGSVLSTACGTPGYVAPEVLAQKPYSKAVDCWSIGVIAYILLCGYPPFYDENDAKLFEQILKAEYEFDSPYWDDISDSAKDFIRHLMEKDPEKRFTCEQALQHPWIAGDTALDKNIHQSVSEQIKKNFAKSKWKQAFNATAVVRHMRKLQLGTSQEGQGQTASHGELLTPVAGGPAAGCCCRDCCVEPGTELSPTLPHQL
How it was run: as §1

[2] = target: T23, EGFR(L747-E749del, A750P) (Homo sapiens, UniProt P00533, A750P/DEL747-749)
T23 construct: purchased DiscoveRx KINOMEscan
How it was run: as §1

LIMK2 = target: T24, LIMK2 (Homo sapiens, UniProt P53671); conditions: read-out: % Retention on Solid Support
T24 construct: purchased DiscoveRx KINOMEscan
How it was run: as §1

T1 sequence (P49760 whole entry): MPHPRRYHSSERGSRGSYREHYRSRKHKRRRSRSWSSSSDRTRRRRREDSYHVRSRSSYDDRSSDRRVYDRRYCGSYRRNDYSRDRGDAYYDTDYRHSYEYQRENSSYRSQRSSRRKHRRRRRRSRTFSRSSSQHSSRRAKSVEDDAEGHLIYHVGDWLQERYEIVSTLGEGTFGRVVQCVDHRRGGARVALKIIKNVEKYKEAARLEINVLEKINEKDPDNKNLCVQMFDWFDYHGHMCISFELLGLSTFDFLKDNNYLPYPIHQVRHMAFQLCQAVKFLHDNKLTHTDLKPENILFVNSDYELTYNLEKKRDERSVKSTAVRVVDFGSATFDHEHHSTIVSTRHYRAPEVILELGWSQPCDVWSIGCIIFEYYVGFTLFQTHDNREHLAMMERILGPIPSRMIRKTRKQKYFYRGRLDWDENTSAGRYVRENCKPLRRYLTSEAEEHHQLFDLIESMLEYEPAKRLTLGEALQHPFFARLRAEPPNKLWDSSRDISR

## N[C@H]1CC[C@H](Nc2cc(-c3cccc(NCc4cccc(F)c4)n3)c(Cl)cn2)CC1 [i-CDK9, N2′-(trans-4-aminocyclohexyl)-5′-chloro-N6-(3-fluorobenzyl)-2,4′-bipyridine-2′,6-diamine]
CLK2; 1 µM i-CDK9
  remaining binding at 1 µM: 61%
CLK2; 10 µM i-CDK9
  remaining binding at 10 µM: 26%
ASK1; 1 µM i-CDK9
  remaining binding at 1 µM: 100%
ASK1; 10 µM i-CDK9
  remaining binding at 10 µM: 100%
PYK2; 1 µM i-CDK9
  remaining binding at 1 µM: 100%
PYK2; 10 µM i-CDK9
  remaining binding at 10 µM: 100%
PLK4; 1 µM i-CDK9
  remaining binding at 1 µM: 89%
PLK4; 10 µM i-CDK9
  remaining binding at 10 µM: 91%
PKN2; 1 µM i-CDK9
  remaining binding at 1 µM: 52%
PKN2; 10 µM i-CDK9
  remaining binding at 10 µM: 93%
RET; 1 µM i-CDK9
  remaining binding at 1 µM: 100%
RET; 10 µM i-CDK9
  remaining binding at 10 µM: 100%
CSNK1G2; 1 µM i-CDK9
  % Retention on Solid Support: 100%
CSNK1G2; 10 µM i-CDK9
  % Retention on Solid Support: 66%
EPHA5; 1 µM i-CDK9
  % Retention on Solid Support: 96%
EPHA5; 10 µM i-CDK9
  % Retention on Solid Support: 100%
[1]; 1 µM i-CDK9
  remaining binding at 1 µM: 84%
[1]; 10 µM i-CDK9
  remaining binding at 10 µM: 100%
CDC2L2; 1 µM i-CDK9
  remaining binding at 1 µM: 100%
CDC2L2; 10 µM i-CDK9
  remaining binding at 10 µM: 33%
EPHA7; 1 µM i-CDK9
  remaining binding at 1 µM: 100%
EPHA7; 10 µM i-CDK9
  remaining binding at 10 µM: 96%
GSK3A; 1 µM i-CDK9
  remaining binding at 1 µM: 93%
GSK3A; 10 µM i-CDK9
  remaining binding at 10 µM: 8.7%
FLT1; 1 µM i-CDK9
  remaining binding at 1 µM: 100%
FLT1; 10 µM i-CDK9
  remaining binding at 10 µM: 81%
MAPKAPK5; 1 µM i-CDK9
  remaining binding at 1 µM: 100%
MAPKAPK5; 10 µM i-CDK9
  remaining binding at 10 µM: 94%
MEK3; 1 µM i-CDK9
  remaining binding at 1 µM: 99%
MEK3; 10 µM i-CDK9
  remaining binding at 10 µM: 85%
PRKCD; 1 µM i-CDK9
  remaining binding at 1 µM: 98%
PRKCD; 10 µM i-CDK9
  remaining binding at 10 µM: 70%
BLK; 1 µM i-CDK9
  remaining binding at 1 µM: 100%
BLK; 10 µM i-CDK9
  remaining binding at 10 µM: 100%
MARK4; 1 µM i-CDK9
  % Retention on Solid Support: 100%
MARK4; 10 µM i-CDK9
  % Retention on Solid Support: 100%
TSSK1B; 1 µM i-CDK9
  remaining binding at 1 µM: 99%
TSSK1B; 10 µM i-CDK9
  remaining binding at 10 µM: 68%
ERK4; 1 µM i-CDK9
  remaining binding at 1 µM: 100%
ERK4; 10 µM i-CDK9
  remaining binding at 10 µM: 100%
PCTK2; 1 µM i-CDK9
  remaining binding at 1 µM: 14%
PCTK2; 10 µM i-CDK9
  remaining binding at 10 µM: 0.05%
CAMK1; 1 µM i-CDK9
  remaining binding at 1 µM: 96%
CAMK1; 10 µM i-CDK9
  remaining binding at 10 µM: 100%
[2]; 1 µM i-CDK9
  % Retention on Solid Support: 46%
[2]; 10 µM i-CDK9
  % Retention on Solid Support: 85%
LIMK2; 1 µM i-CDK9
  remaining binding at 1 µM: 100%
LIMK2; 10 µM i-CDK9
  remaining binding at 10 µM: 100%
